Source: the NIST ThermoML archive (doi:10.1016/j.jct.2013.09.041)
Numbers after ± are expanded uncertainties.

Key:
[1] = 323.15 K, 101.33 kPa, Liquid; for speed of sound: Sing-around technique in a fixed-path interferometer; for mass density: Vibrating tube method
[2] = mn = molality of the nth substance listed, in mol/kg; conditions: 323.15 K, 101 kPa, Liquid, Vibrating tube method
[3] = osmotic coefficient (dimensionless); mn = molality of the nth substance listed, in mol/kg; conditions: 323.15 K, 101 kPa, Liquid, A Knauer K-7000 vapor pressure osmometer

Structure (SMILES): CCCCCCn1cc[n+](C)c1.O=S(=O)([O-])C(F)(F)F [1-hexyl-3-methylimidazolium trifluoromethanesulfonate]
- speed of sound [1]: 1327.2 ± 1.3 m/s
- mass density [1]: 1217.24 ± 0.41 kg/m3

Structure (SMILES): CCCCCCn1cc[n+](C)c1.O=S(=O)([O-])C(F)(F)F [1-hexyl-3-methylimidazolium trifluoromethanesulfonate] + CC(C)O
- mass density ([2]; m1 = 0.051): 763.8 ± 0.23 kg/m3
- mass density ([2]; m1 = 0.102): 768.55 ± 0.23 kg/m3
- mass density ([2]; m1 = 0.152): 773.15 ± 0.22 kg/m3
- mass density ([2]; m1 = 0.204): 777.8 ± 0.22 kg/m3
- mass density ([2]; m1 = 0.252): 782.08 ± 0.21 kg/m3
- mass density ([2]; m1 = 0.301): 786.21 ± 0.21 kg/m3
- mass density ([2]; m1 = 0.355): 790.72 ± 0.21 kg/m3
- mass density ([2]; m1 = 0.404): 794.75 ± 0.2 kg/m3
- mass density ([2]; m1 = 0.455): 798.81 ± 0.2 kg/m3
- mass density ([2]; m1 = 0.504): 802.65 ± 0.2 kg/m3
- mass density ([2]; m1 = 0.606): 810.57 ± 0.19 kg/m3
- mass density ([2]; m1 = 0.709): 818.13 ± 0.19 kg/m3
- mass density ([2]; m1 = 0.802): 824.81 ± 0.18 kg/m3
- mass density ([2]; m1 = 0.908): 831.9 ± 0.18 kg/m3
- mass density ([2]; m1 = 1.012): 838.62 ± 0.17 kg/m3
- osmotic coefficient ([3]; m1 = 0.026): 0.991 ± 0.013
- osmotic coefficient ([3]; m1 = 0.043): 0.954 ± 0.012
- osmotic coefficient ([3]; m1 = 0.1): 0.886 ± 0.013
- osmotic coefficient ([3]; m1 = 0.2): 0.758 ± 0.015
- osmotic coefficient ([3]; m1 = 0.305): 0.659 ± 0.017
- osmotic coefficient ([3]; m1 = 0.412): 0.616 ± 0.018
- osmotic coefficient ([3]; m1 = 0.526): 0.585 ± 0.019
- osmotic coefficient ([3]; m1 = 0.819): 0.538 ± 0.02
- osmotic coefficient ([3]; m1 = 1.221): 0.476 ± 0.022
- osmotic coefficient ([3]; m1 = 1.62): 0.444 ± 0.023
- osmotic coefficient ([3]; m1 = 2.033): 0.42 ± 0.024
- osmotic coefficient ([3]; m1 = 2.449): 0.387 ± 0.025
- osmotic coefficient ([3]; m1 = 2.822): 0.378 ± 0.025
- osmotic coefficient ([3]; m1 = 3.344): 0.364 ± 0.025
- osmotic coefficient ([3]; m1 = 3.646): 0.359 ± 0.026

Structure (SMILES): CCCCCCn1cc[n+](C)c1.O=S(=O)([O-])C(F)(F)F [1-hexyl-3-methylimidazolium trifluoromethanesulfonate] + CCC(C)O
- mass density ([2]; m1 = 0.052): 785.45 ± 0.23 kg/m3
- mass density ([2]; m1 = 0.102): 789.95 ± 0.23 kg/m3
- mass density ([2]; m1 = 0.153): 794.44 ± 0.23 kg/m3
- mass density ([2]; m1 = 0.203): 798.75 ± 0.22 kg/m3
- mass density ([2]; m1 = 0.302): 806.95 ± 0.22 kg/m3
- mass density ([2]; m1 = 0.352): 810.99 ± 0.22 kg/m3
- mass density ([2]; m1 = 0.403): 815.07 ± 0.21 kg/m3
- mass density ([2]; m1 = 0.45): 818.65 ± 0.21 kg/m3
- mass density ([2]; m1 = 0.5029): 822.68 ± 0.21 kg/m3
- mass density ([2]; m1 = 0.597): 829.6 ± 0.2 kg/m3
- mass density ([2]; m1 = 0.7): 836.92 ± 0.2 kg/m3
- mass density ([2]; m1 = 0.797): 843.69 ± 0.2 kg/m3
- mass density ([2]; m1 = 0.907): 850.73 ± 0.19 kg/m3
- mass density ([2]; m1 = 1.002): 856.64 ± 0.19 kg/m3
- osmotic coefficient ([3]; m1 = 0.056): 0.823 ± 0.014
- osmotic coefficient ([3]; m1 = 0.079): 0.797 ± 0.014
- osmotic coefficient ([3]; m1 = 0.107): 0.76 ± 0.015
- osmotic coefficient ([3]; m1 = 0.215): 0.626 ± 0.018
- osmotic coefficient ([3]; m1 = 0.296): 0.576 ± 0.019
- osmotic coefficient ([3]; m1 = 0.401): 0.513 ± 0.021
- osmotic coefficient ([3]; m1 = 0.513): 0.487 ± 0.022
- osmotic coefficient ([3]; m1 = 0.809): 0.426 ± 0.024
- osmotic coefficient ([3]; m1 = 1.206): 0.393 ± 0.025
- osmotic coefficient ([3]; m1 = 1.608): 0.38 ± 0.025
- osmotic coefficient ([3]; m1 = 2.032): 0.362 ± 0.026
- osmotic coefficient ([3]; m1 = 2.426): 0.351 ± 0.026
- osmotic coefficient ([3]; m1 = 2.776): 0.342 ± 0.026
- osmotic coefficient ([3]; m1 = 3.311): 0.337 ± 0.026
- osmotic coefficient ([3]; m1 = 3.703): 0.332 ± 0.026

Structure (SMILES): CCCCCCn1cc[n+](C)c1.O=S(=O)([O-])C(F)(F)F [1-hexyl-3-methylimidazolium trifluoromethanesulfonate] + CCCCCO
- mass density ([2]; m1 = 0.05): 796.7 ± 0.29 kg/m3
- mass density ([2]; m1 = 0.1): 801.05 ± 0.29 kg/m3
- mass density ([2]; m1 = 0.151): 805.37 ± 0.29 kg/m3
- mass density ([2]; m1 = 0.202): 809.6 ± 0.29 kg/m3
- mass density ([2]; m1 = 0.254): 813.84 ± 0.29 kg/m3
- mass density ([2]; m1 = 0.3): 817.52 ± 0.28 kg/m3
- mass density ([2]; m1 = 0.401): 825.41 ± 0.28 kg/m3
- mass density ([2]; m1 = 0.498): 832.62 ± 0.28 kg/m3
- mass density ([2]; m1 = 0.61): 840.59 ± 0.27 kg/m3
- mass density ([2]; m1 = 0.705): 847.05 ± 0.27 kg/m3
- mass density ([2]; m1 = 0.803): 853.55 ± 0.27 kg/m3
- mass density ([2]; m1 = 0.849): 856.48 ± 0.26 kg/m3
- mass density ([2]; m1 = 1): 865.7 ± 0.26 kg/m3
- osmotic coefficient ([3]; m1 = 0.053): 0.784 ± 0.019
- osmotic coefficient ([3]; m1 = 0.084): 0.599 ± 0.021
- osmotic coefficient ([3]; m1 = 0.108): 0.51 ± 0.021
- osmotic coefficient ([3]; m1 = 0.194): 0.44 ± 0.023
- osmotic coefficient ([3]; m1 = 0.313): 0.392 ± 0.025
- osmotic coefficient ([3]; m1 = 0.415): 0.345 ± 0.026
- osmotic coefficient ([3]; m1 = 0.512): 0.331 ± 0.027
- osmotic coefficient ([3]; m1 = 0.829): 0.299 ± 0.028
- osmotic coefficient ([3]; m1 = 1.216): 0.293 ± 0.028
- osmotic coefficient ([3]; m1 = 1.64): 0.276 ± 0.028
- osmotic coefficient ([3]; m1 = 2.047): 0.27 ± 0.028
- osmotic coefficient ([3]; m1 = 2.461): 0.255 ± 0.029
- osmotic coefficient ([3]; m1 = 2.845): 0.244 ± 0.029
- osmotic coefficient ([3]; m1 = 3.322): 0.226 ± 0.03

Structure (SMILES): CCCCCCn1cc[n+](C)c1.O=S(=O)([O-])C(F)(F)F [1-hexyl-3-methylimidazolium trifluoromethanesulfonate] + CCCCO
- mass density ([2]; m1 = 0.052): 791.18 ± 0.22 kg/m3
- mass density ([2]; m1 = 0.103): 795.76 ± 0.21 kg/m3
- mass density ([2]; m1 = 0.152): 799.99 ± 0.21 kg/m3
- mass density ([2]; m1 = 0.202): 804.23 ± 0.2 kg/m3
- mass density ([2]; m1 = 0.254): 808.45 ± 0.2 kg/m3
- mass density ([2]; m1 = 0.303): 812.46 ± 0.2 kg/m3
- mass density ([2]; m1 = 0.353): 816.43 ± 0.2 kg/m3
- mass density ([2]; m1 = 0.405): 820.46 ± 0.19 kg/m3
- mass density ([2]; m1 = 0.448): 823.73 ± 0.19 kg/m3
- mass density ([2]; m1 = 0.504): 827.88 ± 0.19 kg/m3
- mass density ([2]; m1 = 0.598): 834.75 ± 0.18 kg/m3
- mass density ([2]; m1 = 0.701): 841.92 ± 0.18 kg/m3
- mass density ([2]; m1 = 0.792): 848.08 ± 0.17 kg/m3
- mass density ([2]; m1 = 0.906): 855.49 ± 0.17 kg/m3
- mass density ([2]; m1 = 1.01): 861.88 ± 0.17 kg/m3
- osmotic coefficient ([3]; m1 = 0.028): 0.828 ± 0.018
- osmotic coefficient ([3]; m1 = 0.045): 0.721 ± 0.02
- osmotic coefficient ([3]; m1 = 0.114): 0.599 ± 0.019
- osmotic coefficient ([3]; m1 = 0.198): 0.543 ± 0.02
- osmotic coefficient ([3]; m1 = 0.302): 0.482 ± 0.022
- osmotic coefficient ([3]; m1 = 0.427): 0.453 ± 0.023
- osmotic coefficient ([3]; m1 = 0.526): 0.434 ± 0.023
- osmotic coefficient ([3]; m1 = 0.81): 0.399 ± 0.024
- osmotic coefficient ([3]; m1 = 1.224): 0.356 ± 0.026
- osmotic coefficient ([3]; m1 = 1.64): 0.339 ± 0.026
- osmotic coefficient ([3]; m1 = 2.045): 0.329 ± 0.027
- osmotic coefficient ([3]; m1 = 2.417): 0.313 ± 0.027
- osmotic coefficient ([3]; m1 = 2.827): 0.298 ± 0.028
- osmotic coefficient ([3]; m1 = 3.312): 0.282 ± 0.028

Structure (SMILES): CCCCCCn1cc[n+](C)c1.O=S(=O)([O-])C(F)(F)F [1-hexyl-3-methylimidazolium trifluoromethanesulfonate] + CCCO
- mass density ([2]; m1 = 0.051): 783.95 ± 0.22 kg/m3
- mass density ([2]; m1 = 0.102): 788.64 ± 0.22 kg/m3
- mass density ([2]; m1 = 0.153): 793.14 ± 0.21 kg/m3
- mass density ([2]; m1 = 0.234): 800.17 ± 0.21 kg/m3
- mass density ([2]; m1 = 0.296): 805.3 ± 0.2 kg/m3
- mass density ([2]; m1 = 0.306): 806.08 ± 0.2 kg/m3
- mass density ([2]; m1 = 0.355): 810.02 ± 0.2 kg/m3
- mass density ([2]; m1 = 0.401): 813.72 ± 0.2 kg/m3
- mass density ([2]; m1 = 0.448): 817.38 ± 0.19 kg/m3
- mass density ([2]; m1 = 0.518): 822.69 ± 0.19 kg/m3
- mass density ([2]; m1 = 0.62): 830.19 ± 0.18 kg/m3
- mass density ([2]; m1 = 0.707): 836.34 ± 0.18 kg/m3
- mass density ([2]; m1 = 0.804): 843.03 ± 0.18 kg/m3
- mass density ([2]; m1 = 0.905): 849.7 ± 0.17 kg/m3
- mass density ([2]; m1 = 1.012): 856.34 ± 0.17 kg/m3
- osmotic coefficient ([3]; m1 = 0.025): 0.964 ± 0.014
- osmotic coefficient ([3]; m1 = 0.051): 0.866 ± 0.014
- osmotic coefficient ([3]; m1 = 0.087): 0.796 ± 0.014
- osmotic coefficient ([3]; m1 = 0.214): 0.685 ± 0.016
- osmotic coefficient ([3]; m1 = 0.308): 0.645 ± 0.017
- osmotic coefficient ([3]; m1 = 0.411): 0.585 ± 0.019
- osmotic coefficient ([3]; m1 = 0.518): 0.547 ± 0.02
- osmotic coefficient ([3]; m1 = 0.815): 0.494 ± 0.022
- osmotic coefficient ([3]; m1 = 1.223): 0.462 ± 0.022
- osmotic coefficient ([3]; m1 = 1.614): 0.427 ± 0.024
- osmotic coefficient ([3]; m1 = 2.029): 0.408 ± 0.024
- osmotic coefficient ([3]; m1 = 2.416): 0.392 ± 0.025
- osmotic coefficient ([3]; m1 = 2.82): 0.373 ± 0.025
- osmotic coefficient ([3]; m1 = 3.493): 0.361 ± 0.026

Structure (SMILES): CCCCO [butan-1-ol]
- speed of sound [1]: 1157.3 ± 0.8 m/s
- mass density [1]: 786.32 ± 0.12 kg/m3

Structure (SMILES): CCC(C)O (stereo unspecified) [butan-2-ol]
- speed of sound [1]: 1120.2 ± 1 m/s
- mass density [1]: 780.4 ± 0.15 kg/m3

Structure (SMILES): CCCCCO [pentan-1-ol]
- speed of sound [1]: 1192.9 ± 1.3 m/s
- mass density [1]: 792.14 ± 0.24 kg/m3

Structure (SMILES): CCCO [propan-1-ol]
- speed of sound [1]: 1121.8 ± 0.8 m/s
- mass density [1]: 779.09 ± 0.13 kg/m3

Structure (SMILES): CC(C)O [propan-2-ol]
- speed of sound [1]: 1050.9 ± 0.8 m/s
- mass density [1]: 758.63 ± 0.13 kg/m3
